Experimental data: patent US20230374505A1, “Human XIST Antisense Oligonucleotides for X Reactivation Therapy” (The General Hospital Corporation, priority 2020, published 2023)

Assays:
[1] = in plasma; cited from earlier work
[2] = test system: cell culture; experiment: Tolerable Aza concentration in cell culture; assay type: cell-based
[3] = test system: Xi reactivation in the brain; experiment: Aza/decitabine three pulse treatment, Xi reactivation in the brain; assay type: in vivo, mouse; conditions: three short pulses delivered systemically; after two weeks
Description: ASO drugs are generally more specific and have the advantage that information on pharmacokinetics and toxicity studies for chemically similar ASOs is transferable and cumulative. Thus, ASOs may have a more favorable path to regulatory approval. Small molecules generally have lower selectivity and may face steeper hurdles in the approval process within the US Food and Drug Administration (FDA). By mixing modalities, our approach may potentially anticipate a more streamlined approach to FDA approval. […] Unlike LNA-based ASOs which have tissue half-lives of several weeks (Wahlestedt C et al. Potent and nontoxic antisense oligonucleotides containing locked nucleic acids. Proc Natl Acad Sci USA. 2000; 97:5633-5638), Aza is known to have a very short half-life (t1/2<1h in plasma) (Welch J S et al. TP53 and decitabine in acute myeloid leukemia and myelodysplastic syndromes. N Engl J Med. 2016; 375:2023-2036). However, once DNA is demethylated, the state may be stable (Kordasiewicz H B et al. Sustained therapeutic reversal of Huntington's disease by transient repression of huntingtin synthesis. Neuron. 2012; 74:1031-1044). Future work will determine the duration of the effect and whether periodic boosters of either Aza or ASO might be necessary to maintain the reactivation.
Decitabine was administered to the XIST2lox, Nestin-Cre F2 generation, by IP injection at 5 weeks old. […]

[4] = test system: human CDKL5 patient fibroblast line; experiment: Toxicity of nanaomycin to CDKL5 patient fibroblasts; assay type: cell-based; conditions: added every 2 days, 5 days treatment; data not shown
Method: Experiments were also conducted to test Xi reactivation in human CDKL5 patient's fibroblast with XIST ASO-6B and DNMT3 inhibitor, Nanaomycin, co-treatment. A human CDKL5 patient fibroblast line carrying mutation on the Xa was treated with an ASO to XIST and a DNMT3i, nanaomycin A. After 5 days of treatment with 20 nM XIST ASO-6B (added once at day 0; lipofectamine transfection) and 25 nM-1 uM nanaomycin A (added every 2 days; days 0, 2, and 4), cells were harvested for qPCR analysis (FIG. 10A). Nanaomycin is very toxic, and the cells were dead in concentration above 250 nM (data not shown).

[5] = test system: CDKL5 wt allele (Xi); experiment: CDKL5 wt allele reactivation in human CDKL5 patient fibroblasts, allele-specific qPCR; assay type: cell-based
Method: FIGS. 6A-6B. XIST ASO (ASO-6B) and DNMTi co-treatment in CDKL5 patient fibroblast. (A) A schematic of treatment of a human CDKL5 patient fibroblast line carrying mutation on the Xa. After 3 days of treatment with 100 nM XIST ASOs (lipofectamine transfection) and 0.5 uM Aza (added every 2 days), harvested cells underwent qPCR analysis. […] CDKL5 wt reactivation was normalized to CDKL5mut expression from the Xa chromosome, normalized to RPL13a.
(§1) FIGS. 8A-8C. Xi reactivation in human CDKL5 patient's fibroblast with XIST ASO+/−DNMTi (Decitabine, Azacitidine, RG-108). (A) A human CDKL5 patient fibroblast line carrying mutation on the Xa was treated with ASOs to XIST and three DNMTi. On day 0, cells were treated with 20 nM of XIST ASO-6B, and 1 uM of each DNMTi every 2 days. On day 7, cells were harvested for qPCR analysis. […] XIST expression was relative to untreated levels, normalized to RPL13a. […] CDKL5 wt reactivation was normalized to CDKL5mut expression from the Xa chromosome.
FIGS. 9A-9C. Xi reactivation in human CDKL5 patient's fibroblast with XIST ASO-6B and DNMT inhibitor (SGI-1027) co-treatment. (A) A human CDKL5 patient fibroblast line carrying mutation on the Xa was treated with an ASO to XIST and an DNMTi. […]

[6] = test system: XIST; experiment: XIST expression in CDKL5 patient fibroblasts after XIST ASO with or without DNMTi, qPCR; assay type: cell-based, human
Method: as §1, with “days.” for “days. On day 7, cells were harvested for qPCR analysis.”
FIGS. 11A-11B. Triplicate experiment showing Xi reactivation in human CDKL5 patient's fibroblast with XIST ASO+/−DNMTi (Decitabine, Azacitidine, RG-108). […] CDKL5 wt reactivation was normalized to CDKL5mut expression from the Xa chromosome. Data shown are the average of three experiments; error bars are standard deviation.
RNA was isolated by Trizol (Life Technologies) extraction (tissues were snap frozen in liquid nitrogen and ground with pestle and mortar or put in Trizol and homogenized using a Qiagen TissueLyser), treated with TurboDNAse for 30 min at 37° C. […] The relative efficiency of the reactivations was calculated by comparing to GAPDH or TBP RNA as the internal control in mouse experiment. The relative efficiency of the reactivations was calculated by comparing to RPL13a as the internal control in human cells. […]

Nc1ncn([C@H]2C[C@H](O)[C@@H](CO)O2)c(=O)n1 [Aza, 5-aza-2′-deoxycytidine]
t1/2 [1]: < 1 h | tolerable concentration in cell culture [2]: 0.5 µM | Xi reactivation in the brain [3]: sufficient to induce Xi reactivation

CC1OC(CC(=O)O)CC2=C1C(=O)c1c(O)cccc1C2=O (centres unmarked) [Nanaomycin, nanaomycin A]
concentration above which the cells were dead [4]: above 250 nM

ASO 6B: XIST ASO AGAAGTCTGGCACATCTGTG, SEQ ID NO:11 (LNA-flanked DNA gapmer, wing lengths and linkages not given here, further chemistry not given here)
CDKL5 reactivation ([5]; 20 nM ASO 6B at day 0, 1 uM Decitabine, 0.5 uM Azacitidine or 1 uM RG-108 at days 0 and 2, harvested Day 4, average of three experiments (FIG. 11B)): 0.13% | CDKL5 reactivation ([5]; 20 nM ASO-6B at day 0, 1 uM DNMTi every 2 days, harvested day 7 (FIG. 8C)): 0.7% | XIST expression ([6]; 20 nM ASO-6B with and without 1 uM DNMTi, 7 days (FIG. 8B)): decreased | XIST expression ([6]; 20 nM ASO-6B with or without DNMTi, 4 days (FIG. 11A)): decreased
